# Square brackets hold non-standard residues; d marks the D form. Peptide text beside a SMILES is read from it.
# What was measured:
# [1] = Short-term stability testing: percentage recovery of CyPep-1 from formulations; settings: 40° C., t=2 weeks
# Description: HPLC was performed using a PHENOMENEX® (USA) KINETEX® C18 5 μm 100 Å 4.6×250 mm column and a PHENOMENEX® SecurityGuard C18 5 μm guard column, as follows:
# The optimal extraction method developed was performed as follows: • (i) 150 mg formulation was weighed into a 10 ml volumetric flask. • (ii) The flask was made up to volume with 50:50 v/v water:ethanol. • (iii) The volumetric flask was vortex-mixed for 30 s to disperse the formulation, yielding an extraction solution containing CyPep-1 at a concentration of 150 μg/ml. • (iv) A PTFE magnetic stirrer was added to the volumetric flask from Step (iii) and the contents of the volumetric flask was stirred for 2 h at 500 rpm. • (v) The extraction solution from Step (iv) was transferred to centrifuge tubes and the samples were centrifuged at 16,000×g for 10 min at 25° C. • (vi) The supernatant was filtered using a 0.2 μm PTFE filter.
# The obtained, filtered solution was used for HPLC analysis.
# The 10 formulations described above which were not discarded were taken into stability testing. Samples of the formulations were stored at 2-8° C., 25° C. and 40° C. After 2 weeks, samples stored at 25° C. and 40° C. were assessed; after 4 weeks and 11 weeks samples stored at 2-8° C. and 25° C. were assessed.
# Stability of CyPep-1 in each formulation was determined based on how much CyPep-1 could be recovered at each time point at each temperature. […]
# [2] = tested on: neoplastic cells; settings: as shown in WO 2011/092347; cited from earlier work
# [3] = Saturated solubility of CyPep-1 in liquid excipients; assay type: physicochemical; settings: 25° C.
# Description: A sample of the saturated supernatant was examined using light microscopy with a magnification of 200-1000× using a LEICA® (Germany) DME light microscope. The saturated supernatant was mounted on a microscope slide and examined immediately using both polarised and non-polarised light for the presence of CyPep-1 crystals. The dilution (Step (vii)) was performed immediately after the centrifugation step. • (vii) Since the solubility of CyPep-1 in these excipients was unknown, an appropriate dilution was made to achieve a concentration of CyPep-1 in sample diluent (deionised water) that was above the limit of quantification of the HPLC method, prior to analysis. For excipients which were saturated following the addition of ca. 20 mg of CyPep-1 the following dilution was performed: • (a) Into a 10 mL volumetric flask ca. 50 mg of the saturated solution was weighed. • (b) The volumetric flask from Step (a) was made to volume with sample diluent (deionised water) and vortex mixed for 30 s. • (c) An aliquot of the diluted sample from Step (b) was transferred to an HPLC vial and analysed by HPLC as described above. • (viii) For excipients which were saturated following the addition of ca. 40 mg of CyPep-1 the dilution was performed as detailed in Step (vii), however a 20 mL volumetric flask was used. Stability Testing—Method
compound,measurement,setting,value
CC[C@@H](C)[C@@H](NC(=O)[C@@H](C)NC(=O)[C@@H](CCCCN)NC(=O)[C@@H](C)NC(=O)[C@H](NC(=O)[C@@H](CCCNC(=N)N)NC(=O)[C@@H](CC(C)C)NC(=O)[C@H](NC(=O)[C@@H](CCCCN)NC(=O)CNC(=O)[C@@H](CCCNC(=N)N)NC(=O)[C@@H](CCCNC(=N)N)NC(=O)[C@@H](CCCNC(=N)N)NC(=O)[C@@H](CCC(N)=O)NC(=O)[C@@H](CCCNC(=N)N)NC(=O)[C@@H](CCCNC(=N)N)NC(=O)[C@@H](CCCCN)NC(=O)[C@@H](CCCCN)NC(=O)[C@@H](CCCNC(=N)N)NC(=O)CNC(=O)[C@H](N)Cc1ccc(O)cc1)[C@H](C)O)C(C)C)C(=O)N[C@H](Cc1ccc(O)cc1)C(=O)N[C@H](CCCCN)C(=O)N[C@H](CCCNC(=N)N)C(=O)N[C@H](Cc1ccc(O)cc1)C(=O)N[C@@H](C(=O)N[C@H](CCC(=O)O)C(=O)O)[C@H](C)CC [CyPep-1] (H-[dY]G[dR][dK][dK][dR][dR][dQ][dR][dR][dR]G[dK][dT][dL][dR][dV][dA][dK][dA][dI][dY][dK][dR][dY][dI][dE]-OH; N-terminus and C-terminus assumed),stability of CyPep-1 in cream and ointment formulations,[1],unstable
same,cytotoxicity to neoplastic cells,[2],selectively cytotoxic
same,saturated solubility of CyPep-1,[3]; benzyl alcohol,more than 10 % w/w
same,saturated solubility of CyPep-1,"[3]; deionised water (pH 4, 5, 6 or 7)",more than 10 % w/w
same,saturated solubility of CyPep-1,[3]; ethanol,more than 10 % w/w
same,saturated solubility of CyPep-1,[3]; phenoxyethanol,more than 10 % w/w
